Measurements: patent US9271987B2, “Methods and compositions for treating Alzheimer's disease” (Cold Spring Harbor Laboratory, priority 2011, dated 2016)
Entries after “also recorded” stand apart in the source; their conditions may differ.

Legend:
[1] = system: Aβ42-expressing flies (elav-Gal4/Y; UAS-Aβ42/+); assay: Pavlovian olfactory associative immediate memory in Aβ42-expressing flies after drug feeding
Description: Flies were raised and maintained at room temperature (22-24° C.).

[2] = system: Tg(APPswe.PSEN1dE9) double transgenic mice; assay: Morris water maze in AD-model double transgenic mice; assay type: in vivo, mouse; conditions: for Rescue of memory loss in Morris water maze: 8-month-old mice, lavage once daily from 9 days before training until end of experiments (18 days)
human EGFR = biological target: T1, human EGFR (Homo sapiens, UniProt P00533); assay: p-EGFR level in COS-7 cells transfected with human EGFR wt (Western blot); assay type: cell-based; conditions: 15 min; for Level of p-EGFR or activated EGFR after Aβ42 application: 25 μg/ml Aβ42 preparation
T1 construct: expressed in transfected cells; host or cells: COS-7 (monkey kidney), Lipofectamine 2000, plasmid from Dr. Parsons

[3] = EGFR inhibitor 0.01, 0.1, 1, 10 μg/ml, fed 4 hours each day for 7 days, 10-day-old Aβ42-expressing males

| Level of p-EGFR or activated EGFR after Aβ42 application (human EGFR) | Compound | Aβ42-induced memory loss (immediate memory) [1, 3] | Rescue of memory loss in Morris water maze [2] | further results |
| --- | --- | --- | --- | --- |
|  | C#Cc1cccc(Nc2ncnc3cc(OCCOC)c(OCCOC)cc23)c1 [Er, N-(3-ethynylphenyl)-6,7-bis(2-methoxyethoxy)quinazolin-4-amine] | prevented the memory loss |  |  |
|  | COc1cc2ncnc(Nc3ccc(F)c(Cl)c3)c2cc1OCCCN1CCOCC1 [Ge, N-(3-chloro-4-fluoro-phenyl)-7-methoxy-6-(3-morpholin-4-ylpropoxy)quinazolin-4-amine] | prevented the memory loss | sufficient to rescue the memory loss; also recorded: rescuing effects were observed | Effect of two-month drug feeding on memory loss ([2]; drug feeding from 6- to 8-month-old): produced a positive effect |
|  | CC12CC3CC(C)(C1)CC(N)(C3)C2 [memantine] |  | unable to improve the memory-loss phenotype | Rescue of memory loss in Morris water maze ([2]; listed as Mem): No improvement in memory; Rescue of memory loss in Morris water maze ([2]; listed as momentine): had no effect; Aβ42-induced memory loss (immediate memory) ([1]; memantine 20 μg/ml, fed 4 hours each day for 7 consecutive days, memory at day 10 post-eclosion, male flies): capable of preventing the memory loss |
| significantly elevated | Aβ42 from oligomeric preparation: Synthetic and recombinant wild type Aβ42 (AnaSpec) incubated at 4° C. for 24 h to form oligomers |  |  | Expression levels of EGFRs after Aβ42 application (human EGFR; 25 μg/ml Aβ42 from oligomeric preparation): not affected |
| opposite effect | monomeric Aβ42 preparation: Aβ42 peptide preparation abundant in monomers |  |  |  |
